{
  "source": "patent US20250032580A1",
  "about": "“USE OF ADNF POLYPEPTIDES IN THERAPY” (RAMOT AT TEL-AVIV UNIVERSITY LTD., priority 2021, published 2025)",
  "key": {"[1]": {"tested_on": "differentiated N1E-115 cells", "assay": "FRAP of mCherry-Tau (Tau-MT interaction)", "assay_type": "cell-based, mouse", "procedure": "Cell culture—Mouse neuroblastoma NIE-115 cells were maintained in Dulbecco's modified Eagle's medium, 10% fetal bovine serum, 2 mM glutamine and 100 U ml—1 penicillin, […] ml—1 streptomycin (Biological Industries, Beit Haemek, Israel). The cells were incubated in 95% air/5% CO2 in a humidified incubator at 37° C.\nCell differentiation and co-transfection of overexpression plasmids—Cultured NIE-115 cells were plated on 35 mm dishes (81156, 60μ-Dish, Ibidi, Martinsried, Germany) at a concentration of 1.25×10^4 cells per dish and then were differentiated with reduced fetal bovine serum (2%) and DMSO (1.25%) containing medium for 5 days before transfection. 48 hrs before experiments N1E-115 cells were co-transfected with 1 μg EB3-RFP or mCherry-Tau (3R) plasmid with or without 2 μg of plasmids, coding to GFP conjugated to full-length human ADNP, or ADNP carried mutations. 1:3 ratios between total amount of transfected DNA and transfection reagent were used according to manufacture guidance (Lipofectamine2000, Thermo Fisher Scientific, Waltham, MA, USA) in all subsequent experiments.\nFluorescence recovery after photobleaching (FRAP)—Differentiated NIE-115 cells were transfected with mCherry-Tau with or without GFP-conjugated to full-length ADNP or mutated ADNP, and imaged 48 hrs after transfection. An ROI for photobleaching was drowned in the proximal cell branches. mCherry-Tau was bleached with a […], and fluorescence recovery was collected within wavelengths of 610-650 nm. 80 images were taken every 0.74 sec immediately after bleaching. After FRAP imaging all samples were also treated with NAP in final concentrations of 10^−12 M, and after 4 hrs time-lapse imaging was done again under the same conditions. FRAP imaging for assessment difference between NAP and SKIP (SEQ ID NO: 21) activity was performed after an hour of ZnCl2 treatment (400 μM final concentration; Sigma, Rehovot, Israel) with or without NAP/SKIP (10^−12 M final concentration). Fluorescence signals were quantified with Fiji, obtained data were normalized with easyFRAP [82, 83] and FRAP recovery curves were fitted by a one-phase exponential association function by GraphPad Prism6 (GraphPad Software, Inc., La Jolla, CA, USA) while samples with R^2<0.9 were excluded.\nNext, the effect of full-length/truncated ADNP forms with or without NAP treatment on Tau-MT interaction was examined by fluorescence recovery after photobleaching (FRAP) (FIGS. 8A-C). FRAP was performed with mCherry-tagged Tau protein (FIG. 8A). […] Therefore, the immobile mCherry-Tau fraction reflects the rate of Tau association with MTs."}, "[2]": {"tested_on": "Tyr mice", "assay": "Developmental milestone assessment of Tyr mouse pups", "assay_type": "in vivo", "design": "key to NAP efficacy: global developmental delays: corrections by NAP treatment (+)", "procedure": "Animals—Animals were housed under a 12-hour light/dark cycle, with food and water ad-libitum. Mouse pups were subcutaneously administrated with NAP [having an amino acid sequence NAPVSIPQ (SEQ ID NO: 2), 25 μg NAP/1 ml saline] as described (8, 12). At 21 days of age mice were administered daily intranasal NAP in vehicle solution (“DD”—7.5 mg/ml of NaCl, 1.7 mg/ml of citric acid, 3 mg/ml of disodium phosphate dihydrate, and 0.2 mg/ml of 50% benzalkonium chloride solution) (0.5 μg NAP/5p1 DD) (8, 9, 12, and U.S. Pat. No. 10,912,819 to Gozes). These mice continued to behavioral analysis as described hereinbelow. The noninvasive intranasal route was chosen as these experiments required daily handling and administration. Age (weeks) of mice during behavioral experiments (mean±SEM) was as follows: Catwalk-9.23±0.15, grooming-10±0.15, social approach-10.5±0.12, odor-discrimination-12.12±0.13, hanging-wire-13±0.14, hotplate-13.18±0.13. Group size was determined following previous experiments (12). Pups were randomly allocated to either the NAP or DD group according to sex and genotype. All procedures involving animals were conducted under the supervision and approval of the institutional animal care and use committee of Tel Aviv University and the Israeli Ministry of Health.\nDevelopmental milestone assessment and fostering—This experiment included animals from 16 litters in 2 experimental batches. It was performed as previously described (12) with slight modifications. Experimenters were blinded to sex and genotype during experimental procedures. Sexes were grouped if no statistically significant sex differences were discovered.\nDevelopmental milestone assessment: At p1 Tyr pups were tattooed and genotyped for the presence of the Tyr718 mutation and SRY as described above. The same day pups were randomized to either NAP or Saline treatment groups according to genotype and sex results and developmental milestone assessment was performed from p1 to p21. As animal randomization ended up with unequal male/female ratios for certain groups and no statistical differences were found between the sexes in any of the 4 treatment groups (T test), the sexes could not be separated, [That is except for eye opening, where a significant difference was observed between the sexes in the Tyr group (P=0.047, no significance in the other three treatment groups)]. Pup paws were tattooed using a 31-gauge needle and tattoo ink (Ketchum Manufacturing Co., catalog 329AA) for identification on P1 and, until P21, underwent daily measurements for length and weight and observation for eye opening. Pups were injected daily with NAP, 1 hour prior to the tests as previously described^1.\nBriefly, for ear twitch reflex, a cotton tip was gently brushed against the tip of the ear three times, between postnatal days 7-15 or until the pup responded correctly for two consecutive days. For air righting reflex, the pup was held up-side down and released ˜10.5 cm above the cage, containing 5 cm of shavings. The test was performed between postnatal days 8-21 or until the pup landed on the shavings with all four paws, for two consecutive days. For surface righting reflex, pups were placed on their backs on a level surface, the test was performed between postnatal days 1-13 until the pups was able to right itself with all four paws on the surface in under a second for two consecutive days. For eye opening, mice were observed daily until both eyes were open (eyelids separated completely). For auditory startle, the pup was placed on a level surface and the experimenter clapped loudly twice until a visible startle response was evident for 2 consecutive days. The test was performed between days 7-18. For cliff aversion, pups were placed on the edge of a small box (approx. 4 cm in height) with both paws protruding over the edge of the box. Pups were allowed 30 sec to avoid the cliff and move themselves backwards. […]"}},
  "data": [
    {"smiles": "CC[C@H](C)[C@H](NC(=O)[C@H](CO)NC(=O)[C@@H](NC(=O)[C@@H]1CCCN1C(=O)[C@H](C)NC(=O)[C@@H](N)CC(N)=O)C(C)C)C(=O)N1CCC[C@H]1C(=O)N[C@@H](CCC(N)=O)C(=O)O", "note": "[NAP, NAPVSIPQ]", "values": [
      {"measurement": "Tau-MT interaction (immobile mCherry-Tau fraction)", "setting": "[1]; cells expressing ADNP p.Glu830synfs*83, 10^−12 M, 4 hrs", "result": "significantly increased"},
      {"measurement": "Tau-MT interaction (Tau immobile fraction)", "setting": "[1]; cells expressing ADNP p.Lys408Valfs*31 SDM, 10^−12 M, 4 hrs", "result": "prevented by NAP treatment"},
      {"measurement": "Tau-MT interaction (immobile mCherry-Tau fraction)", "setting": "[1]; cells expressing ADNP p.Ser404*, 10^−12 M, 4 hrs", "result": "significantly increased"},
      {"measurement": "Tau immobile fraction under zinc", "setting": "[1]; zinc 400 μM, 1 h, together with peptide 10^−12 M", "result": "excessive impact"},
      {"measurement": "Rooting reflex", "setting": "[2]; Tyr mice, data not shown", "result": "induced rooting"},
      {"measurement": "NAP efficacy: global developmental delays", "setting": "[2]; Tyr mouse, first symbol of cell", "result": "+/+"},
      {"measurement": "Surface-righting, first day of acquisition", "setting": "[2]; Tyr pups, daily s.c. NAP, WT 8.69±0.42, Tyr 10.14±0.36, mean±SEM", "result": "8.81±0.33"},
      {"measurement": "Air-righting, first day of acquisition", "setting": "[2]; Tyr pups, daily s.c. NAP, WT 12.96±0.28, Tyr 15.29±0.15, mean±SEM", "result": "14.63±0.38"},
      {"measurement": "Body weight", "setting": "[2]; WT female mice, data not shown", "result": "no effect"},
      {"measurement": "Eye opening", "setting": "[2]; WT females, data not shown", "result": "no NAP effect"},
      {"measurement": "Developmental milestones in WT littermates", "setting": "[2]; WT littermates, data not shown", "result": "no effect on WT littermates except for the cliff aversion response"},
      {"measurement": "Body weight", "setting": "[2]; female Tyr pups, P1-P21", "result": "beneficial effect was visible from P10 and reached significance at P20-21"},
      {"measurement": "Eye opening (day)", "setting": "[2]; female Tyr pups, Tyr 16±0.37, WT 14.93±0.43", "result": "14.78±0.46"},
      {"measurement": "Eye opening", "setting": "[2]; males, data not shown", "result": "No genotype/NAP effect"}
    ]}
  ]
}
